Data taken from EP2388023A1, “Composites on a basis of bioceramics and biodegradable or non biodegradable polymers, containing antibiotics for tissue restitution and products therefrom” (Universidade Federal de Minas Gerais, priority 2006, dated 2007).
Read-outs that look alike come from different tables or passages of the source.

Tested on: dentine-pulp complex of rats
Procedure: The objective of this study was to check the inflammatory response of the pulp tissue and dentine tissue formation in rats after the use of composites made from hydroxiapatite as compared to the use of […] (CETEA 143/04). The composites were prepared and sterilized with ethylene oxide, following the procedures described previously. 36 six-week-old rats (Rattus norvergicus) of the Wistar lineage, weighing between 250 and 300g were used in this investigation.
The animals were placed in […] groups: (1) Calcium hydroxide; (2) Bioceramics HA and PLGA; (3) Negative control within four periods of time (1, 7. 15 and 30 days). The animals received an intraperitoneal anesthetic injection of 10 ml Ketamine 10% and 7.5 ml Xilazine 10% (body weight: 0.1ml/100g).
A cavity in the first upper molar oclussal face of the animals was made using a spherical drill n. 1/4 (ISO Maillefer), in total isolation, with water refrigeration and low rotation, keeping the animal in adequate equipment. No additional retention was supplied for the preparation of the cavity. Cavities and exposures were carefully cleaned with cotton balls and distilled water during four minutes. After being sacrificed, the animals underwent the histological processing of their teeth performed with the use of hematoxilin-eosin followed by a qualitative and quantitative histological analysis. The data was subjected to a ANOVA Test statistical analysis. The dentine bridge was measured with a 60-micrometer reticle.

[Ca+2].[OH-].[OH-] [group (1), Calcium hydroxide]
inflammatory response of the pulp tissue (after seven days): necrosed areas and a mild acute inflammatory process | inflammatory response of the pulp tissue (from the fourteenth day on): mild chronic infiltrate | formation of hard tissue (onset, periods 1, 7, 15 and 30 days): around the thirtieth day
